The source of these data is patent publication US20100076015A1, “Aminopyridine Derivatives” (VANTIA LIMITED, priority 2008, published 2010).

For the experiment, the target named is T1, Human KLK1 (Homo sapiens, UniProt P06870).
T1 construct: purchased Callbiochem (Calbiochem)
Nature of the experiment: Determination of the IC50 for KLK1 (fluorogenic substrate H-DVal-Leu-Arg-AFC). The experiment is classed as biochemical. Conditions: 37° C. Put shortly:
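Human KLK1 incubated at 37° C with fluorogenic substrate H-DVal-Leu-Arg-AFC and a range of test compound concentrations. Residual activity taken as initial reaction rate from absorbance change at 410 nm; IC50 derived from these rates.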

T1 sequence (P06870 25-262): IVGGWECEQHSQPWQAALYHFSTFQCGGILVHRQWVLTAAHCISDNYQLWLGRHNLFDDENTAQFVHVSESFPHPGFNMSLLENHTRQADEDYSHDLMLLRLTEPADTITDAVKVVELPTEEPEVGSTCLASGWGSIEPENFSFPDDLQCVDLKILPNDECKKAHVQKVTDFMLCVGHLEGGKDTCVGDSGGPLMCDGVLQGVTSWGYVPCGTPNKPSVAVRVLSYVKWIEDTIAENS

For orientation: IC50 means the concentration that gives 50% inhibition. `CCN(CC)[C@@H](C)C(=O)N[C@@H](Cc1cccc(C)c1)C(=O)NCc1ccc(N)nc1` [Example 415, (S)—N-{(S)-1-[(6-Amino-pyridin-3-ylmethyl)-carbamoyl]-2-m-tolyl-ethyl}-2-diethylamino-propionamide] displayed an IC50 of 5.3 nM.
Take `Nc1ccc(CNC(=O)[C@H](Cc2cccc3ccccc23)NC(=O)[C@H]2CCCCN2)cn1` [Example 75, (R)-Piperidine-2-carboxylic acid {(S)-1-[(6-amino-pyridin-3-ylmethyl)-carbamoyl]-2-naphthalen-1-ylethyl}-amide]: the midpoint of inhibition, the IC50, lay at 2.2 nM.
To `CN(C)CC(=O)N[C@@H](C(=O)NCc1ccc(N)nc1)C(C1CCCCC1)C1CCCCC1` [Example 222, (R)—N-(6-Amino-pyridin-3-ylmethyl)-3,3-dicyclohexyl-2-(2-dimethylamino-acetylamino)-propionamide] belongs 39.7 nM; to `CCC(C)[C@@H](N)C(=O)N[C@@H](Cc1ccc(O)cc1)C(=O)NCc1ccc(N)nc1` (stereo partly drawn) [Example 37, (R)-2-Amino-3-methyl-pentanoic acid [(S)-1-[(6-amino-pyridin-3-ylmethyl)-carbamoyl]-2-(4-hydroxy-phenyl)-ethyl]-amide], 626 nM; to `CN1CCC[C@@H]1C(=O)N[C@@H](Cc1ccccc1F)C(=O)NCc1ccc(N)nc1` [Example 108, (R)-1-Methyl-pyrrolidine-2-carboxylic acid [(S)-1-[(6-amino-pyridin-3-ylmethyl)-carbamoyl]-2-(2-fluoro-phenyl)-ethyl]-amide], 34 nM.
With `CCC(C)[C@H](C(=O)N[C@@H](Cc1cccc(Cl)c1)C(=O)NCc1ccc(N)nc1)N(C)C` (stereo partly drawn) [Example 405, (R)-2-Dimethylamino-3-methyl-pentanoic acid [(S)-1-[(6-amino-pyridin-3-ylmethyl)-carbamoyl]-2-(3-chloro-phenyl)-ethyl]-amide], the IC50 stood at 7.1 nM.
As for `CCC(C)[C@@H](N)C(=O)N[C@@H](Cc1ccc(Cl)cc1)C(=O)NCc1ccc(N)nc1` (stereo partly drawn) [Example 36, (R)-2-Amino-3-methyl-pentanoic acid [(S)-1-[(6-amino-pyridin-3-ylmethyl)-carbamoyl]-2-(4-chloro-phenyl)-ethyl]-amide], the IC50 was determined as 1.6 nM.
Take `Cc1cc(C)c(C(=O)N[C@@H](Cc2ccc3ccccc3n2)C(=O)NCc2ccc(N)nc2)[nH]1` [Example 257, 3,5-Dimethyl-1H-pyrrole-2-carboxylic acid {(S)-1-[(6-amino-pyridin-3-ylmethyl)-carbamoyl]-2-quinolin-2-yl-ethyl}-amide]: 12.1 nM corresponded to half-maximal inhibition (IC50).
To `CCC(C)[C@@H](NC)C(=O)N[C@@H](CC1CCCCC1)C(=O)NCc1ccc(N)nc1` (stereo partly drawn) [Example 21, (R)-3-Methyl-2-methylamino-pentanoic acid {(S)-1-[(6-amino-pyridin-3-ylmethyl)-carbamoyl]-2-cyclohexyl-ethyl}-amide] belongs 22.8 nM; to `CCN1CCC[C@@H]1C(=O)N[C@@H](Cc1ccc(F)cc1)C(=O)NCc1ccc(N)nc1` [Example 136, (R)-1-Ethyl-pyrrolidine-2-carboxylic acid [(S)-1-[(6-amino-pyridin-3-ylmethyl)-carbamoyl]-2-(4-fluoro-phenyl)-ethyl]-amide], 8.6 nM.
In the case of `Nc1ccc(CNC(=O)[C@H](Cc2ccc(F)cc2)NC(=O)c2nc3ccccc3[nH]2)cn1` [Example 333, 1H-Benzoimidazole-2-carboxylic acid [(S)-1-[(6-amino-pyridin-3-ylmethyl)-carbamoyl]-2-(4-fluoro-phenyl)-ethyl]-amide], half-maximal inhibition (IC50) required 184 nM.
For the molecule `Cc1cc(C)c(C(=O)N[C@@H](Cc2cccc(Cl)c2)C(=O)NCc2ccc(N)nc2C)[nH]1` [Example 279, 3,5-Dimethyl-1H-pyrrole-2-carboxylic acid [(S)-1-[(6-amino-2-methyl-pyridin-3-ylmethyl)-carbamoyl]-2-(3-chloro-phenyl)-ethyl]-amide], the IC50 was 4.5 nM. Compared with the last molecule, the IC50 is about 41-fold lower.
To `CC1CCCC(C)N1CC(=O)N[C@@H](Cc1ccc(F)cc1)C(=O)NCc1ccc(N)nc1` (stereo partly drawn) [Example 378, (S)—N-(6-Amino-pyridin-3-ylmethyl)-2-[2-(2,6-dimethyl-piperidin-1-yl)-acetylamino]-3-(4-fluoro-phenyl)-propionamide] belongs 2.5 nM.
For `Cc1ccc(-c2ccc(C(=O)N[C@@H](Cc3cccc4ccccc34)C(=O)NCc3ccc(N)nc3)[nH]2)cc1` [Example 292, 5-p-Tolyl-1H-pyrrole-2-carboxylic acid {(S)-1-[(6-amino-pyridin-3-ylmethyl)-carbamoyl]-2-naphthalen-1-yl-ethyl}-amide] the value was 31.5 nM; for `CC(C)N(C(C)C)[C@@H](C)C(=O)N[C@@H](Cc1ccc(F)c(F)c1)C(=O)NCc1ccc(N)nc1` [Example 350, (S)—N-[(S)-1-[(6-Amino-pyridin-3-ylmethyl)-carbamoyl]-2-(3,4-difluoro-phenyl)-ethyl]-2-diisopropylamino-propionamide], 28.5 nM.
`CCN(C)[C@@H](C)C(=O)N[C@@H](Cc1cccc(C)c1)C(=O)NCc1ccc(N)nc1` [Example 413, (S)—N-{(S)-1-[(6-Amino-pyridin-3-ylmethyl)-carbamoyl]-2-m-tolyl-ethyl}-2-(ethyl-methyl-amino)-propionamide] displayed an IC50 of 7.9 nM.
For `COc1cccc(C[C@H](NC(=O)[C@H]2CCCN2C(C)C)C(=O)NCc2ccc(N)nc2)c1` [Example 124, (R)-1-Isopropyl-pyrrolidine-2-carboxylic acid [(S)-1-[(6-amino-pyridin-3-ylmethyl)-carbamoyl]-2-(3-methoxy-phenyl)-ethyl]-amide], the midpoint of inhibition, the IC50, lay at 36.8 nM.
Molecule `CC(C)N1CCC[C@@H]1C(=O)N[C@@H](Cc1cccc(Cl)c1)C(=O)NCc1ccc(N)nc1` [Example 120, (R)-1-Isopropyl-pyrrolidine-2-carboxylic acid [(S)-1-[(6-amino-pyridin-3-ylmethyl)-carbamoyl]-2-(3-chloro-phenyl)-ethyl]-amide] yielded an IC50 of 1.6 nM.
In turn, `Nc1ccc(CNC(=O)[C@H](Cc2cccc3ccccc23)NC(=O)c2cc3cc(F)ccc3[nH]2)cn1` [Example 301, 5-Fluoro-1H-indole-2-carboxylic acid {(S)-1-[(6-amino-pyridin-3-ylmethyl)-carbamoyl]-2-naphthalen-1-yl-ethyl}-amide] gave an IC50 of 11 nM.
The molecule `CN1CCC[C@@H]1C(=O)N[C@@H](Cc1cc(F)c(F)cc1F)C(=O)NCc1ccc(N)nc1` [Example 94, (R)-1-Methyl-pyrrolidine-2-carboxylic acid [(S)-1-[(6-amino-pyridin-3-ylmethyl)-carbamoyl]-2-(2,4,5-trifluoro-phenyl)-ethyl]-amide] yielded an IC50 of 12.5 nM.
The molecule `C[C@H](C(=O)N[C@@H](Cc1ccc(C(F)(F)F)cc1)C(=O)NCc1ccc(N)nc1)N1CCCCC1` [Example 421, (R)—N-[(S)-1-[(6-Amino-pyridin-3-ylmethyl)-carbamoyl]-2-(4-trifluoromethyl-phenyl)-ethyl]-2-piperidin-1-yl-propionamide] gave an IC50 of 67.4 nM.
`C[C@H](C(=O)N[C@@H](Cc1ccc(Cl)c(Cl)c1)C(=O)NCc1ccc(N)nc1)N(C)S(C)(=O)=O` [Example 212, (R)—N-[(S)-1-[(6-Amino-pyridin-3-ylmethyl)-carbamoyl]-2-(3,4-dichloro-phenyl)-ethyl]-2-(methanesulfonyl-methyl-amino)-propionamide] came in with an IC50 of 29.8 nM.
`Cc1cc(C)c(C(=O)N[C@@H](Cc2ccc(F)c(F)c2)C(=O)NCc2ccc(N)nc2C)[nH]1` [Example 284, 3,5-Dimethyl-1H-pyrrole-2-carboxylic acid [(S)-1-[(6-amino-2-methyl-pyridin-3-ylmethyl)-carbamoyl]-2-(3,4-difluoro-phenyl)-ethyl]-amide] displayed an IC50 of 5.2 nM.
Molecule `Cc1cc(C)c(C(=O)N[C@@H](Cc2ccccc2C)C(=O)NCc2ccc(N)nc2)[nH]1` [Example 244, 3,5-Dimethyl-1H-pyrrole-2-carboxylic acid {(S)-1-[(6-amino-pyridin-3-ylmethyl)-carbamoyl]-2-o-tolyl-ethyl}-amide] registered an IC50 of 7.8 nM. Compared with the last molecule, the IC50 is about 1.5-fold higher.
Regarding `CC(C)N(C)[C@@H](C)C(=O)N[C@@H](CC1CCCC2CCCCC21)C(=O)NCc1ccc(N)nc1` (stereo partly drawn) [Example 395, (S)—N-[(S)-1-[(6-Amino-pyridin-3-ylmethyl)-carbamoyl]-2-(decahydro-naphthalen-1-yl)-ethyl]-2-(isopropyl-methyl-amino)-propionamide], half-maximal inhibition (IC50) required 0.17 nM.
Regarding `CCC(C)[C@@H](N)C(=O)N[C@@H](Cc1ccc(Cl)c(Cl)c1)C(=O)NCc1ccc(N)nc1` (stereo partly drawn) [Example 35, (R)-2-Amino-3-methyl-pentanoic acid [(S)-1-[(6-amino-pyridin-3-ylmethyl)-carbamoyl]-2-(3,4-dichloro-phenyl)-ethyl]-amide], the half-maximal inhibitory concentration (IC50) was found to be 0.47 nM.
For `C[C@@H](N)C(=O)N[C@@H](CC1CCCC2CCCCC21)C(=O)NCc1ccc(N)nc1` (stereo partly drawn) [Example 18, (R)-2-Amino-N-[(S)-1-[(6-amino-pyridin-3-ylmethyl)-carbamoyl]-2-(decahydro-naphthalen-1-yl)-ethyl]-propionamide] the value was 5 nM.
Turning to `CC(C)N(CC(=O)N[C@@H](CC1CCCC2CCCCC21)C(=O)NCc1ccc(N)nc1)C(C)C` (stereo partly drawn) [Example 394, (S)—N-(6-Amino-pyridin-3-ylmethyl)-3-(decahydro-naphthalen-1-yl)-2-(2-diisopropylamino-acetylamino)-propionamide], the IC50 stood at 8.4 nM.
The molecule `CC(C)N1CCC[C@@H]1C(=O)N[C@@H](Cc1c[nH]c2ccccc12)C(=O)NCc1ccc(N)nc1` [Example 130, (R)-1-Isopropyl-pyrrolidine-2-carboxylic acid [(S)-1-[(6-amino-pyridin-3-ylmethyl)-carbamoyl]-2-(1H-indol-3-yl)-ethyl]-amide] showed an IC50 of 5 nM.
In turn, `Cc1nc(N)ccc1CNC(=O)[C@H](Cc1cccc(C(F)(F)F)c1)NC(=O)c1cc2ccccc2[nH]1` [Example 309, 1H-Indole-2-carboxylic acid [(S)-1-[(6-amino-2-methyl-pyridin-3-ylmethyl)-carbamoyl]-2-(3-trifluoromethyl-phenyl)-ethyl]-amide] registered an IC50 of 42.3 nM.
